Data set [1] can be described thus: Pharmacokinetic study in rat plasma after oral administration of Nauclea officinalis extracts (HPLC-MS/MS). It counts as in vivo, Male Sprague–Dawley (SD) rats. The following applies: oral Nauclea officinalis extracts 2 g/kg, noncompartment model, mean ± SD; for Cmax / MRT last / Vd/F / half-life: male, Sprague-Dawley; for Cmax: n = 6, read-out: C max (maximum plasma concentration); for MRT last: n = 6, read-out: MRT (0 − t); for Vd/F: n = 6, read-out: Vz/F (apparent distribution volume); for half-life: n = 6, read-out: t1/2 (elimination half-life) (converted). As to the method: (§1) Chromatographic analysis was performed on the LC-20ADXR System (Shimadzu, Japan). The Phenomenex Kinete EVO C18 100 Å (50 mm × 2.1 mm, 5 μm) column was used as the analytical column maintained at 40°C with (A) 0.1% formic acid aqueous solution and (B) acetonitrile as the mobile phase. […] The flow rate was 0.8 mL/min, and the injection volume was 5 μL.
(§2) Mass spectrometric detection was performed on an AB-SCIEX API 4000 mass spectrometer (AB SCIEX, Singapore) with ESI in negative ion multiple reaction monitoring (MRM) mode. The optimized instrument parameters were as follows: nebulizer gas: 50 psi, heated by N2 gas: 55 psi, ion spray voltage: −4500 V and temperature: 550°C; nebulizer, blowback gas, and collision gas were nitrogen; declustering potential (DP), collision energy (CE), and collision cell exit potential (CXP) of the four analytes and chloramphenicol (IS) are shown in Table 1.
Six male SD rats were tested in pharmacokinetics studies. […] The blood samples (approximately 0.5 mL) were collected via the venous plexus of the eye socket at 0.083, 0.25, 0.5, 1, 2, 4, 6, 8, […], 12, and 24 h under anesthesia. Next, each sample was immediately centrifuged at 4000 rpm for 10 min to acquire the plasma. The plasma was transferred to new tubes and stored at −80°C until further use. The pharmacokinetics parameters of the four compounds in rat plasma were calculated by the noncompartment model using Drug and Statistics (DAS 3.3.0) software (Beijing, China).
Pharmacokinetic parameters of four compounds were calculated by noncompartmental model using DAS 3.3.0 software.

Data set [2] can be described thus: Tissue distribution in rats after oral administration of Nauclea officinalis extracts (HPLC-MS/MS). It counts as in vivo. As to the method:
as §1, §2
Thirty rats were divided into five groups (n = 6) at random, which were orally administered Nauclea officinalis extracts at a dose of 2 g/kg for tissue distribution conducted at 0.5, 1, 2, 4, and 6 h. During the collection, the heart, liver, spleen, lung, kidney, stomach, small intestine, and brain were rinsed with physiological saline solution to get rid of the blood or content and blotted on filter paper and then weighed. Each tissue sample was accurately weighed and homogenized by using physiological saline at four times the tissue weight (w/v). The homogenates were stored at −80°C until analysis.
Drugs enter tissues that receive high blood flow first, followed by those that receive low blood flow.

Take `O=C(/C=C/c1ccc(O)c(O)c1)O[C@@H]1C[C@](O)(C(=O)O)C[C@@H](O)[C@H]1O` [Chlorogenic acid]: in data set [1], the Cmax came to 242 ± 84.7 ng/mL, the MRT last was 5.33 ± 0.65 h, the Vd/F came to 916 ± 452 L/kg and the half-life is 10.6 ± 6.21 h. For the same compound, in data set [1] (n = 6), the “AUC (0 − ∞)” value was 554.37 ± 166.14 μg/L∗h and the “CL (clearance rate)” value is 1049 ± 266.7 mL/min/kg. For the same compound, the “CL (clearance rate)” value in data set [1] (n = 6, listed as chlorogenic acid) is 1049 ± 266.6 mL/min/kg. For the same compound, the “Peak concentration in most tissues versus plasma” value in data set [2] (after oral extract 2 g/kg) is reported as “much lower than in plasma”.
Take `C/C=C1/COC(=O)[C@H]2C(=O)N3CCc4c([nH]c5ccccc45)[C@@H]3C[C@@H]12` [Naucleactonin C]: in data set [1], the Cmax worked out at 1010 ± 369 ng/mL, the MRT last is 4.76 ± 1.57 h, the Vd/F is 0.966 ± 0.359 L/kg and the half-life was 4.59 ± 1.65 h. For the same compound, in data set [1] (n = 6), the “AUC (0 − t)” value is given as 5281.36 ± 440.02 μg/L∗h, the “AUC (0 − ∞)” value amounted to 5405.02 ± 416.99 μg/L∗h, the “CL (clearance rate)” value is 2.5 ± 0.17 mL/min/kg and the “T max (time to Cmax)” value is 1.66 h. Further, the “Abundance in small intestine versus stomach” value in data set [2] (after oral extract 2 g/kg) was “more abundant in the small intestine than in the stomach”. Moreover, the “Detection in studied tissues” value in data set [2] (heart, liver, spleen, lung, kidney, small intestine, stomach, brain, 0.5-6 h after oral extract 2 g/kg) was “could be detected in all studied tissue”.

(Values after publication PMC9797307, “Measurement of Pharmacokinetics and Tissue Distribution of Four Compounds from Nauclea officinalis in Rat Plasma and Tissues through HPLC-MS/MS” (Journal of Analytical Methods in Chemistry, 2022).)
